Reference: patent publication US5688913A, “CS-1 peptidomimetics, compositions and methods of using the same” (Cytel Corporation, priority 1995, dated 1997)
Numbered stars: 1 amine (or outer) side, 2 acyl side, 3 side chain; on linkers, the order of the positions; unused ones are H or OH. Square brackets hold non-standard residues; d marks the D form. Peptide text beside a SMILES is read from it. * marks the point of attachment. X20 = O=C(CCCCCO[C@@H]1O[C@H](CO)[C@@H](O)[C@H](O)[C@H]1N[*:1])[*:2]; Phe(4-NO2) = N[C@@H](Cc1ccc([N+](=O)[O-])cc1)C(=O)O; hPhe = N[C@@H](CCc1ccccc1)C(=O)O; Cha = N[C@@H](CC1CCCCC1)C(=O)O; Phg = N[C@H](C(=O)O)c1ccccc1; Piperidide = C1CCN(*)CC1; PhAc = O=C(Cc1ccccc1)*; Bz = O=C(c1ccccc1)*

Molecular target: VLA-4 (Homo sapiens, UniProt P05556+P13612)
Test: cell-based
Format: cell-based
Parameters: host or cells: Jurkat (human T lymphoblastic line)
Settings: not given
Experimental: Binding inhibition is measured here as a concentration of peptide that inhibits one-half the binding between a standard number of Jurkat cells and a standard amount of CS-1 peptide bound to the surface of a microtiter plate well. Those concentrations are conveniently expressed as IC50 values, smaller numbers indicating a lower concentration required to inhibit 50 percent binding and therefore greater potency. Further specifics of this assay are provided hereinafter.
Jurkat cells (ATCC TIB 152), a human T lymphoblastic line, labeled with ^51 chromium were used to assay in vitro binding inhibition provided by various peptides discussed herein.
The plates were prepared as follows: The 25-mer CS-1 peptide (SEQ ID NO:1) dissolved at 0.5-1 μg/ml in a buffer of 0.1M NaHCO3 at pH 9.5 that also contained 10 μg/ml of bovine serum albumin (BSA) or a conjugate of the CS-1 peptide linked to ovalbumin (CS-1-OVA) dissolved at 1-2.5 μg/ml in the same buffer was used as the substrate. Each well of the microtiter plates was coated with 50 μl of substrate or buffer alone for controls. The wells were permitted to dry out completely and were then rinsed twice with PBS at pH 7.4. Non-specific binding sites of each well were then blocked using 200 μl per well of RPMI/1 percent BSA for two hours at room temperature. Both solid phase-affixed substrates provided similar results.
Jurkat cells (3-5×10^6 cells) were placed into a 15 ml Falcon™ round-bottom tube with a cap. The tube was centrifuged, and the extra medium was then removed.
Two hundred microliters of a ^51 Cr labeling solution were added to the centrifuged cells and maintained in contact with the cells for 90-120 minutes in a warm room. This procedure typically provides about 50,000-100,000 cpm/well with about 80-100 percent cell viability. Longer contact times provide a greater amount of labeling but lower cell viability.
The labeled cells are washed with (i) complete medium, (ii) 1 mM EDTA/PBS and then (iii) RPM1/1 percent BSA free of serum components. The cells are centrifuged after each washing. The cells are finally resuspended in serum-free RPMI/1 percent BSA at a concentration of 1×10^6 viable cells/ml, which provides a concentration that is diluted by one-half in the assay.
Inhibitor peptides are prepared as stock solutions at 20 mg/ml in DMSO in 1.5 ml cryogenic screwcap vials, and were stored at -70° C. Using Flow™ round-bottom or V-bottom microtiter plates, the inhibitor peptides were prepared at twice the assay concentration in RPMI/1 percent BSA at 60 μl well.
Four initial dilutions were typically used.
The ^51 Cr-labeled cells (1×10^6 cells at 60 μl/well) were then admixed with the diluted peptide solutions. The admixtures were maintained at room temperature (about 22° C.) for 30 minutes.
One hundred microliters of each inhibitor peptide/cell admixture were transferred to the substrate-coated wells. This was done in triplicate for each dilution. The resulting plates were incubated for 30 minutes at 37° C. and then washed gently three times with RPMI/1 percent BSA at 200 μl/well. Binding was observed microscopically, particularly after the second wash.
The bound cells were then lysed by the addition of a 0.5 percent solution of sodium dodecylsulfate in water at 100 μ/l well. The resulting solutions were then processed for counting and calculation of IC50 values following usual procedures. Appropriate positive and negative controls were used with each plate so that the results of separate assays could be normalized and compared.
The data of Table 1 are so normalized.

VLA-4, sequence (P13612 34-1032): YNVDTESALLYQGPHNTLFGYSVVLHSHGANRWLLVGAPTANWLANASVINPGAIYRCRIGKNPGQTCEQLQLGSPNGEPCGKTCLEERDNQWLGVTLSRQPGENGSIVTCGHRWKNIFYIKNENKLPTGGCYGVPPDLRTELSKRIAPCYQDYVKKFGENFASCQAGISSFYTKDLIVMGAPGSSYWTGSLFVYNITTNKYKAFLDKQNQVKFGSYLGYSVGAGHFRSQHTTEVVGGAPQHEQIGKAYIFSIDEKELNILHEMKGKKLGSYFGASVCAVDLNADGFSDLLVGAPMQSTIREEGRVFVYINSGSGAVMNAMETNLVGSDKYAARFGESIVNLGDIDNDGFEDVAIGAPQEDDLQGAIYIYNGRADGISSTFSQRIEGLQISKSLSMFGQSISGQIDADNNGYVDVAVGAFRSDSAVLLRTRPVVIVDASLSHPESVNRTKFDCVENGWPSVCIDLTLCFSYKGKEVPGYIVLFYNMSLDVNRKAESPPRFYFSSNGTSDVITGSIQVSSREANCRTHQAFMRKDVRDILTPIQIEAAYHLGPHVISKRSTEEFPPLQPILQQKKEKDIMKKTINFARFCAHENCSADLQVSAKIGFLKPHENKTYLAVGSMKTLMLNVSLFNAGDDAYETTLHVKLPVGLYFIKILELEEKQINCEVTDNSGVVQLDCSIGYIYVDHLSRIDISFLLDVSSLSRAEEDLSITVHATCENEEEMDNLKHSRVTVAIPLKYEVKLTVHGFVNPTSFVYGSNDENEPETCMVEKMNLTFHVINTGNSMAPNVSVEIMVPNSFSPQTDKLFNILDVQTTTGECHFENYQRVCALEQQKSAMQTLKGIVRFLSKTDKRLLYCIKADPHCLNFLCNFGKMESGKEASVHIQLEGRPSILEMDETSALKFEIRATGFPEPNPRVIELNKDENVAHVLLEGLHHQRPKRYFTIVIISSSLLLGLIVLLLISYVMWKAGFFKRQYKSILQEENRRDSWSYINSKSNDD
VLA-4, sequence (P05556 21-798): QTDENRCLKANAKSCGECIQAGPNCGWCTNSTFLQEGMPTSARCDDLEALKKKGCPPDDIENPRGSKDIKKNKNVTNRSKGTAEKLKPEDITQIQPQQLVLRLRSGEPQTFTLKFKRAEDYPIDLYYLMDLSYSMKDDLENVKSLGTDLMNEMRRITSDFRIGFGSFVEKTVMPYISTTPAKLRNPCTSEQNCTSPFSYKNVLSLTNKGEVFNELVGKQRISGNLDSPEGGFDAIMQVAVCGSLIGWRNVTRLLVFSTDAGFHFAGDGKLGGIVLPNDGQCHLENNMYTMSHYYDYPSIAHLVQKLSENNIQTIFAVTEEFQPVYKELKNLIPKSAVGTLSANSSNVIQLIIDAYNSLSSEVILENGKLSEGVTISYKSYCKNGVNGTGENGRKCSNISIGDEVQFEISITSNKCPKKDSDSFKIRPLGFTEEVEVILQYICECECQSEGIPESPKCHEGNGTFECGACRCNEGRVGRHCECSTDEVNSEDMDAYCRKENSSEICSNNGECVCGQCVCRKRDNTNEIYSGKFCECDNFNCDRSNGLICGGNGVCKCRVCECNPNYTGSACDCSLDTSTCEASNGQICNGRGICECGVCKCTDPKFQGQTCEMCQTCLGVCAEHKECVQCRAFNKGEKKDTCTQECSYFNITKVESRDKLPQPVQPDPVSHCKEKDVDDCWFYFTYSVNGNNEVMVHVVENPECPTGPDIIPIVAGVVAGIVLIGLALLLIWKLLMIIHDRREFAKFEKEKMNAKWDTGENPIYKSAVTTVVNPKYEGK

Compound	RELATIVE POTENCY (relative peptide inhibition of VLA-4 binding CS-1)
CC(C)COC(=O)N[C@@H](CC(=O)O)C(=O)N[C@@H](Cc1ccccc1)C(=O)N1CCCCC1	0
CC(C)CC(C(=O)NCc1ccccc1)C(=O)N[C@@H](CC(=O)O)C(=O)N[C@@H](Cc1ccccc1)C(=O)N1CCC[C@@H]1C(N)=O (stereo partly drawn)	2
CC(C)C[C@H](NC(=O)Cc1ccc(O)c(O)c1)C(=O)N[C@@H](CC(=O)O)C(=O)N[C@@H](Cc1ccccc1)C(=O)N1CCCCC1	81
CC(C)C[C@@H](C(=O)N[C@@H](CC(=O)O)C(=O)N[C@@H](Cc1ccccc1)C(=O)N1CCCCC1)N1C(=O)NC(c2ccccc2)C1=O (stereo partly drawn)	34
CC(C)C[C@@H](C(=O)N[C@@H](CC(=O)O)C(=O)N[C@@H](Cc1ccccc1)C(=O)N1CCC[C@@H]1C(N)=O)n1c(=O)[nH]c2ccccc2c1=O	56
CC(C)C[C@H](NC(=O)c1ccncc1)C(=O)N[C@@H](CC(=O)O)C(=O)N[C@@H](Cc1ccc(O)cc1)C(=O)N1CCCCC1	24
CC(=O)N[C@H]1[C@H](OCCCCCC(=O)N[C@@H](Cc2ccccc2)C(=O)N[C@@H](CC(C)C)C(=O)N[C@@H](CC(=O)O)C(=O)N[C@@H](CC(C)C)C(=O)N2CCCCC2)O[C@H](CO)[C@@H](O)[C@@H]1O (Ac-[X20]FLDL-Piperidide)	41
NC(=O)[C@H]1CCCN1C(=O)[C@H](Cc1ccccc1)NC(=O)[C@H](CC(=O)O)NC(=O)[C@H](CC1CCCCC1)NC(=O)[C@@H](N)Cc1ccccc1 (H-F[Cha]DF[dP]-NH2)	1
CC[C@H](C)[C@H](N)C(=O)N[C@@H](CC1CCCCC1)C(=O)N[C@@H](CC(=O)O)C(=O)N[C@@H](Cc1ccccc1)C(=O)N1CCC[C@@H]1C(N)=O (H-I[Cha]DF[dP]-NH2)	1
CC[C@H](C)[C@H](N)C(=O)N[C@@H](CC1CCCCC1)C(=O)N[C@@H](CC(=O)O)C(=O)N[C@H](C(=O)N1CCC[C@@H]1C(N)=O)C(C)C (H-I[Cha]DV[dP]-NH2)	< 1
CCC(C)C(N)C(=O)N[C@@H](CC(C)C)C(=O)N[C@@H](CC(=O)O)C(=O)N[C@H](C(=O)N1CCC[C@@H]1C(N)=O)C(C)C (single isomer, unassigned) [I L D V p free amine amide]	1
CC(C)C[C@H](NC(=O)C(C)(C)C)C(=O)N[C@@H](CC(=O)O)C(=O)N[C@H](C(=O)N1CCCC1C(N)=O)C(C)C (single isomer, unassigned) [X L D V P pivaloyl amide]	20

Same assay, conditions: normalized IC50 relative to standard peptide of SEQ ID NO:3 (=1); about one-tenth or less of the standard is assigned zero

Compound	RELATIVE POTENCY (relative peptide inhibition of VLA-4 binding CS-1)
CC(C)C[C@H](NC(=O)Cc1ccccc1)C(=O)N[C@@H](CC(=O)O)C(=O)N[C@@H](Cc1ccccc1)C(=O)N1CCCC1CO (stereo partly drawn)	184
CC(C)C[C@H](NC(=O)Cc1ccccc1)C(=O)N[C@@H](CC(=O)O)C(=O)N[C@@H](Cc1ccccc1)C(=O)N1CC(O)C(O)C1 (stereo partly drawn)	194
CC(C)C[C@H](NC(=O)Cc1ccccc1)C(=O)N[C@@H](CC(=O)O)C(=O)N[C@@H](Cc1ccccc1)C(=O)N1CCC(O)CC1	603
CCCCCCCCCC(=O)OC1CCN(C(=O)[C@H](Cc2ccccc2)NC(=O)[C@H](CC(=O)O)NC(=O)[C@H](CC(C)C)NC(=O)Cc2ccccc2)CC1	1
CCCCCCCCCCCCCCCCCC(=O)OC1CCN(C(=O)[C@H](Cc2ccccc2)NC(=O)[C@H](CC(=O)O)NC(=O)[C@H](CC(C)C)NC(=O)Cc2ccccc2)CC1	1
CC(C)C[C@H](NC(=O)Cc1ccccc1)C(=O)N[C@@H](CC(=O)O)C(=O)N[C@H]1Cc2ccccc2[C@H]2CCCCN2C1=O	50
CC(C)C[C@H](NC(=O)Cc1ccccc1)C(=O)N[C@@H](CC(=O)O)C(=O)NC1Cc2ccccc2N(CCN2CCOCC2)C1=O (stereo partly drawn)	20
CC(C)C[C@H](NC(=O)Cc1ccccc1)C(=O)N[C@@H](CC(=O)O)C(=O)NC1CCCCN(CC(N)=O)C1=O (stereo partly drawn)	97
CC(C)C[C@H](NC(=O)Cc1ccccc1)C(=O)N[C@@H](CC(=O)O)C(=O)NC1Cc2ccccc2N(CC(C)C)C1=O (stereo partly drawn)	6
CC(C)C[C@H](NC(=O)Cc1ccccc1)C(=O)N[C@@H](CC(=O)O)C(=O)NC(Cc1ccccc1)Cc1ccccc1	0
CC(C)C[C@H](NC(=O)Cc1ccccc1)C(=O)N[C@@H](CC(=O)O)C(=O)NCCN1CCOCC1	13
CC(C)C[C@H](NC(=O)Cc1ccccc1)C(=O)N[C@@H](CC(=O)O)C(=O)NC1Cc2ccccc2NC1=O (stereo partly drawn)	31
CC(C)C[C@H](NC(=O)Cc1ccccc1)C(=O)N[C@@H](CC(=O)O)C(=O)NC1Cc2ccccc2N(CC(N)=O)C1=O (stereo partly drawn)	45
CC(C)C[C@H](NC(=O)Cc1ccccc1)C(=O)N[C@@H](CC(=O)O)C(=O)NC1CCCCNC1=O (stereo partly drawn)	27
CC(C)C[C@H](NC(=O)Cc1ccccc1)C(=O)N[C@@H](CC(=O)O)C(=O)NC1Cc2ccccc2CN1 (stereo partly drawn)	3
CC(C)C[C@H](NC(=O)Cc1ccccc1)C(=O)N[C@@H](CC(=O)O)C(=O)N[C@@H]1CCCCNC1=O	17
CC(C)C[C@H](NC(=O)Cc1ccccc1)C(=O)N[C@@H](CC(=O)O)C(=O)NN(Cc1ccccc1)C(=O)C1CCCC1	1
CC(C)C[C@H](NC(=O)Cc1ccccc1)C(=O)N[C@@H](CC(=O)O)C(=O)NN(Cc1ccccc1)Cc1ccccc1	0
CC(C)C[C@H](NC(=O)Cc1ccccc1)C(=O)N[C@@H](CC(=O)O)C(=O)NC1CCN(C2CCCCC2)C1=O (stereo partly drawn)	7
NC(=O)[C@H]1CCCN1C(=O)[C@H](Cc1ccccc1)NC(=O)[C@H](CC(=O)O)NC(=O)[C@H](CC1CCCCC1)NC(=O)c1ccccc1 (Bz-[Cha]DF[dP]-NH2)	17
CC(C)[C@H](NC(=O)[C@H](CC(=O)O)NC(=O)[C@H](CC1CCCCC1)NC(=O)c1ccccc1)C(=O)N1CCC[C@@H]1C(N)=O (Bz-[Cha]DV[dP]-NH2)	11
CC(C)C[C@H](NC(=O)Cc1ccccc1)C(=O)N[C@@H](CC(=O)O)C(=O)N[C@@H](Cc1ccc([N+](=O)[O-])cc1)C(=O)N1CCC[C@@H]1C(N)=O (PhAc-LD[Phe(4-NO2)][dP]-NH2)	40
CC(C)C[C@H](NC(=O)Cc1ccccc1)C(=O)N[C@@H](CC(=O)O)C(=O)N[C@H](C(=O)N1CCC[C@@H]1C(N)=O)c1ccccc1 (PhAc-LD[Phg][dP]-NH2)	61
CC(C)C[C@H](NC(=O)Cc1ccccc1)C(=O)N[C@@H](CC(=O)O)C(=O)N[C@@H](CCc1ccccc1)C(=O)N1CCC[C@@H]1C(N)=O (PhAc-LD[hPhe][dP]-NH2)	94
